Measured values as given in US10059701B2 (Merck Patent GmbH, priority 2015, dated 2018).

Tests used:
IRAK1 = molecular target: T1, IRAK1 (Homo sapiens, UniProt P51617); experiment: IRAK1 enzymatic assay (ADP-Glo luminescence); type: biochemical; details: purified human recombinant His-TEV-IRAK1 (194-712)
T1 construct: His-TEV-IRAK1 (194-712); His (N); TEV cleavage site (N)
Method: IRAK1 is a human purified recombinant enzyme (His-TEV-IRAK1 (194-712))
In this assay, IRAK1 hydrolyses ATP and autophosphorylates. Measurement of IRAK-1 inhibition is performed in 384-well format based on luminescence assay (ADP-Glo™ Kinase Assay from Promega). Purified human recombinant IRAK1 (0.3 μg/ml) and serial diluted compounds in DMSO (range of concentration from 10 μM to 0.5 nM) or controls (1% DMSO) are incubated for 15 minutes at RT in assay buffer containing 50 mM Hepes pH 7.0, Fatty acid-free BSA 0.1%, Dithiothreitol (DTT) 2 mM, MgCl2 10 mM, EGTA 0.5 mM, Triton X-100 0.01%. The kinase reaction is then initiated by the addition of ATP […] After 2 hours of incubation at RT, the reaction is stopped and the unconsumed ATP depleted by the addition of ADP-Glo™ Reagent according to supplier instructions. After 40 minutes of incubation at RT, the Kinase Detection Reagent is then added to the assay plate according to supplier instructions. After 20 minutes of incubation at RT, the luminescence signal is measured with a luminometer (PerkinElmer Envision or equivalent reader).

IRAK4 = molecular target: T2, IRAK4 (Homo sapiens, UniProt Q9NWZ3); experiment: IRAK4 enzymatic assay (ADP-Glo luminescence); type: biochemical; details: purified human recombinant His-TEV-IRAK4 (1-460), ATP 2 μM
T2 construct: His-TEV-IRAK4 (1-460); His (N); TEV cleavage site (N)
T2 sequence (Q9NWZ3 1-460): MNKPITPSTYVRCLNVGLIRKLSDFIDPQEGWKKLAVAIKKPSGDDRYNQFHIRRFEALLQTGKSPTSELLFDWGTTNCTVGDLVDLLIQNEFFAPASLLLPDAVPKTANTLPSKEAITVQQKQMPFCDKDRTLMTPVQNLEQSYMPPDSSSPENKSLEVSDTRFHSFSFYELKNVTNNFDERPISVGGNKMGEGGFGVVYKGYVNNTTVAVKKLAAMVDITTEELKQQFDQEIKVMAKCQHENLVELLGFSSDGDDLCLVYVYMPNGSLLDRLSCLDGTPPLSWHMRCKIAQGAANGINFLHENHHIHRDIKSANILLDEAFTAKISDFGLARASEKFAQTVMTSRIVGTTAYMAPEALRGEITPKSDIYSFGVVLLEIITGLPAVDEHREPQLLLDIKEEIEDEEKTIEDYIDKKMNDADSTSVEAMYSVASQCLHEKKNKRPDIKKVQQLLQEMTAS
Method: IRAK4 is a human purified recombinant enzyme (His-TEV-IRAK4 (1-460)).
In this assay, IRAK4 hydrolyses ATP, autophosphorylates and phosphorylates a Serine/Threonine generic peptidic substrate (STK: 61ST1BLC from CisBio International). Measurement of IRAK-4 inhibition is performed in 384-well format based on a luminescence assay (ADP-Glo™ Kinase Assay from Promega). Purified human recombinant IRAK4 (0.3 μg/ml) and serial diluted compounds in DMSO (range of concentration from 10 μM to 0.5 nM) or controls (1% DMSO) are incubated for 15 minutes at RT in assay buffer containing 50 mM Hepes pH 7.0, Fatty acid-free BSA 0.1%, Dithiothreitol (DTT) 2 mM, MgCl2 10 mM, EGTA 0.5 mM, Triton X-100 0.01%, MnCl2 5 mM. The kinase reaction is then initiated by the addition of ATP (2 μM) and the peptidic substrate STK1-biotin peptide (300 nM). After 2 hours of incubation at RT, the reaction is stopped and the unconsumed ATP depleted by the addition of ADP-Glo™ Reagent according to supplier instructions. After 40 minutes of incubation at RT, the Kinase Detection Reagent is then added to the assay plate according to supplier instructions. After 20 minutes of incubation at RT, the luminescence signal is measured with a plate-reading luminometer (PerkinElmer Envision or equivalent reader).

T1 sequence (P51617 194-712): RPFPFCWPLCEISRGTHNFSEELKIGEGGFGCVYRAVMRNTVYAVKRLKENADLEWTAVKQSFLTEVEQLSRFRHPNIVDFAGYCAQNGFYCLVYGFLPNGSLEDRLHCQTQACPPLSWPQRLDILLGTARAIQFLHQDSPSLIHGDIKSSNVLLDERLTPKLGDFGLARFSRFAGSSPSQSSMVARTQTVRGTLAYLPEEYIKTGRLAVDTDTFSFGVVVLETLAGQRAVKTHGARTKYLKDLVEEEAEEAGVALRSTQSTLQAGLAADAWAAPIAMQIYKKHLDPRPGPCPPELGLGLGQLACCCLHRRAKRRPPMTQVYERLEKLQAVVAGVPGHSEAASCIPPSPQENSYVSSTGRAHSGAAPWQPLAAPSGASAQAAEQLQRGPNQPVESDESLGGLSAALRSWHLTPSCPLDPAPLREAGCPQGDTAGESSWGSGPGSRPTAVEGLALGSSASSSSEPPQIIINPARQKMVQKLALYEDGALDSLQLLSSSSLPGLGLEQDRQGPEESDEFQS

SMILES: O=C(/N=c1\[nH]c2cc(N3CCOCC3=O)ccc2n1CCCO)c1ccc(F)c(C(F)(F)F)c1 [Compound 5, (E)-4-fluoro-N-(1-(3-hydroxypropyl)-5-(3-oxomorpholino)-1H-benzo[d]imidazol-2(3H)-ylidene)-3-(trifluoromethyl)benzamide]
- IC50 (IRAK1): ≤ 100 nM
- IC50 (IRAK4): ≤ 100 nM

SMILES: O=C(/N=c1\[nH]c2cc(N3CCOCC3=O)ccc2n1CCCO)c1cccc(OC(F)F)c1 [Compound 6, (E)-3-(difluoromethoxy)-N-(1-(3-hydroxypropyl)-5-(3-oxomorpholino)-1H-benzo[d]imidazol-2(3H)-ylidene)benzamide]
- IC50 (IRAK1): 100 to 1000 nM
- IC50 (IRAK4): ≤ 100 nM

SMILES: O=C(/N=c1\[nH]c2cc(N3CCOCC3=O)ccc2n1CCCO)c1cccc(OC(F)(F)F)c1 [Compound 7, (E)-N-(1-(3-hydroxypropyl)-5-(3-oxomorpholino)-1H-benzo[d]imidazol-2(3H)-ylidene)-3-(trifluoromethoxy)benzamide]
- IC50 (IRAK1): 100 to 1000 nM
- IC50 (IRAK4): ≤ 100 nM

SMILES: O=C(/N=c1\[nH]c2cc(N3CCOC3=O)ccc2n1CCCO)c1cccc(C(F)(F)F)c1 [Compound 8, (E)-N-(1-(3-hydroxypropyl)-5-(2-oxooxazolidin-3-yl)-1H-benzo[d]imidazol-2(3H)-ylidene)-3-(trifluoromethyl)benzamide]
- IC50 (IRAK1): 100 to 1000 nM
- IC50 (IRAK4): ≤ 100 nM

SMILES: O=C(/N=c1\[nH]c2cc(N3CCOCC3=O)ccc2n1CC1(CO)CC1)c1cccc(C(F)(F)F)c1 [Compound 9, (E)-N-(1-((1-(hydroxymethyl)cyclopropyl)methyl)-5-(3-oxomorpholino)-1H-benzo[d]imidazol-2(3H)-ylidene)-3-(trifluoromethyl)benzamide]
- IC50 (IRAK1): 100 to 1000 nM
- IC50 (IRAK4): ≤ 100 nM

SMILES: C[C@H](CCO)n1/c(=N/C(=O)c2cccc(C#N)c2)[nH]c2cc(N3CCOCC3=O)ccc21 [Compound 10, (R,E)-3-cyano-N-(1-(4-hydroxybutan-2-yl)-5-(3-oxomorpholino)-1H-benzo[d]imidazol-2(3H)-ylidene)benzamide]
- IC50 (IRAK1): 100 to 1000 nM
- IC50 (IRAK4): ≤ 100 nM

SMILES: N#Cc1cccc(C(=O)/N=c2\[nH]c3cc(N4CCOC4=O)ccc3n2CCCO)c1 [Compound 11, (E)-3-cyano-N-(1-(3-hydroxypropyl)-5-(2-oxooxazolidin-3-yl)-1H-benzo[d]imidazol-2(3H)-ylidene)benzamide]
- IC50 (IRAK1): 100 to 1000 nM
- IC50 (IRAK4): ≤ 100 nM

SMILES: N#Cc1cccc(C(=O)/N=c2\[nH]c3cc(N4CCOCC4=O)ccc3n2CC2(CO)CC2)c1 [Compound 12, (E)-3-cyano-N-(1-((1-(hydroxymethyl)cyclopropyl)methyl)-5-(3-oxomorpholino)-1H-benzo[d]imidazol-2(3H)-ylidene)benzamide]
- IC50 (IRAK1): ≤ 100 nM
- IC50 (IRAK4): ≤ 100 nM

SMILES: CS(=O)(=O)c1cccc(C(=O)/N=c2\[nH]c3cc(N4CCOCC4=O)ccc3n2CC2(CO)CC2)c1 [Compound 13, (E)-N-(1-((1-(hydroxymethyl)cyclopropyl)methyl)-5-(3-oxomorpholino)-1H-benzo[d]imidazol-2(3H)-ylidene)-3-(methylsulfonyl)benzamide]
- IC50 (IRAK1): ≤ 100 nM
- IC50 (IRAK4): ≤ 100 nM

SMILES: O=C(/N=c1\[nH]c2cc(N3CCOCC3=O)ccc2n1CC1(CO)CC1)c1cccc(C(F)F)c1 [Compound 14, (E)-3-(difluoromethyl)-N-(1-((1-(hydroxymethyl)cyclopropyl)methyl)-5-(3-oxomorpholino)-1H-benzo[d]imidazol-2(3H)-ylidene)benzamide]
- IC50 (IRAK1): ≤ 100 nM
- IC50 (IRAK4): ≤ 100 nM

SMILES: C[C@H](CCO)n1/c(=N/C(=O)c2cccc(C(F)(F)F)c2)[nH]c2cc(N3CCOCC3=O)ccc21 [Compound 15, (R,E)-N-(1-(4-hydroxybutan-2-yl)-5-(3-oxomorpholino)-1H-benzo[d]imidazol-2(3H)-ylidene)-3-(trifluoromethyl)benzamide]
- IC50 (IRAK1): 100 to 1000 nM
- IC50 (IRAK4): ≤ 100 nM

SMILES: C[C@@H](CCO)n1/c(=N/C(=O)c2cccc(C(F)F)c2)[nH]c2cc(N3CCOCC3=O)ccc21 [Compound 16, (S,E)-3-(difluoromethyl)-N-(1-(4-hydroxybutan-2-yl)-5-(3-oxomorpholino)-1H-benzo[d]imidazol-2(3H)-ylidene)benzamide]
- IC50 (IRAK1): 100 to 1000 nM
- IC50 (IRAK4): ≤ 100 nM

SMILES: O=C(/N=c1\[nH]c2cc(N3CCOCC3=O)ccc2n1CCCCO)c1cccc(C(F)(F)F)c1 [Compound 17, (E)-N-(1-(4-hydroxybutyl)-5-(3-oxomorpholino)-1H-benzo[d]imidazol-2(3H)-ylidene)-3-(trifluoromethyl)benzamide]
- IC50 (IRAK1): 100 to 1000 nM
- IC50 (IRAK4): ≤ 100 nM

SMILES: N#Cc1cccc(C(=O)/N=c2\[nH]c3cc(N4CCOCC4=O)ccc3n2CCCCO)c1 [Compound 18, (E)-3-cyano-N-(1-(4-hydroxybutyl)-5-(3-oxomorpholino)-1H-benzo[d]imidazol-2(3H)-ylidene)benzamide]
- IC50 (IRAK1): 100 to 1000 nM
- IC50 (IRAK4): ≤ 100 nM

SMILES: CS(=O)(=O)c1cccc(C(=O)/N=c2\[nH]c3cc(N4CCOCC4=O)ccc3n2CCCCO)c1 [Compound 19, (E)-N-(1-(4-hydroxybutyl)-5-(3-oxomorpholino)-1H-benzo[d]imidazol-2(3H)-ylidene)-3-(methylsulfonyl)benzamide]
- IC50 (IRAK1): 100 to 1000 nM
- IC50 (IRAK4): ≤ 100 nM

SMILES: Cn1cnc2ccc(C(=O)/N=c3\[nH]c4cc(N5CCOCC5=O)ccc4n3CCCO)cc21 [Compound 20, (E)-N-(1-(3-hydroxypropyl)-5-(3-oxomorpholino)-1H-benzo[d]imidazol-2(3H)-ylidene)-1-methyl-1H-benzo[d]imidazole-6-carboxamide]
- IC50 (IRAK1): > 1000 nM
- IC50 (IRAK4): 100 to 1000 nM

SMILES: O=C(/N=c1\[nH]c2cc(N3CCOCC3=O)ccc2n1CCCO)c1cccc(CO)c1 [Compound 21, (E)-3-(hydroxymethyl)-N-(1-(3-hydroxypropyl)-5-(3-oxomorpholino)-1H-benzo[d]imidazol-2(3H)-ylidene)benzamide]
- IC50 (IRAK1): 100 to 1000 nM
- IC50 (IRAK4): ≤ 100 nM

SMILES: Cn1cnc2cc(C(=O)/N=c3\[nH]c4cc(N5CCOCC5=O)ccc4n3CCCO)ccc21 [Compound 22, (E)-N-(1-(3-hydroxypropyl)-5-(3-oxomorpholino)-1H-benzo[d]imidazol-2(3H)-ylidene)-1-methyl-1H-benzo[d]imidazole-5-carboxamide]
- IC50 (IRAK1): > 1000 nM
- IC50 (IRAK4): > 1000 nM

SMILES: O=C(/N=c1\[nH]c2cc(N3CCOCC3=O)ccc2n1CCCO)c1ccc2c(c1)COC2=O [Compound 23, (E)-N-(1-(3-hydroxypropyl)-5-(3-oxomorpholino)-1H-benzo[d]imidazol-2(3H)-ylidene)-1-oxo-1,3-dihydroisobenzofuran-5-carboxamide]
- IC50 (IRAK1): > 1000 nM
- IC50 (IRAK4): ≤ 100 nM

SMILES: C[C@H](CCO)n1/c(=N/C(=O)c2cccc(S(C)(=O)=O)c2)[nH]c2cc(N3CCOCC3=O)ccc21 [Compound 24, (R,E)-N-(1-(4-hydroxybutan-2-yl)-5-(3-oxomorpholino)-1H-benzo[d]imidazol-2(3H)-ylidene)-3-(methylsulfonyl)benzamide]
- IC50 (IRAK1): 100 to 1000 nM
- IC50 (IRAK4): ≤ 100 nM

SMILES: O=C(/N=c1\[nH]c2cc(N3CCOCC3=O)ccc2n1CC1(CO)CC1)c1cc(F)cc(C(F)(F)F)c1 [Compound 25, (E)-3-fluoro-N-(1-((1-(hydroxymethyl)cyclopropyl)methyl)-5-(3-oxomorpholino)-1H-benzo[d]imidazol-2(3H)-ylidene)-5-(trifluoromethyl)benzamide]
- IC50 (IRAK1): 100 to 1000 nM
- IC50 (IRAK4): ≤ 100 nM

SMILES: O=C(/N=c1\[nH]c2cc(N3CCOCC3=O)ccc2n1CCCCO)c1cccc(C(F)F)c1 [Compound 26, (E)-3-(difluoromethyl)-N-(1-(4-hydroxybutyl)-5-(3-oxomorpholino)-1H-benzo[d]imidazol-2(3H)-ylidene)benzamide]
- IC50 (IRAK1): ≤ 100 nM
- IC50 (IRAK4): ≤ 100 nM
